± gives the expanded uncertainty stated by the source.
Assay: wn = mass fraction of the nth substance listed
Settings: Gas, Burnett expansion method

Work on `F/C=C/C(F)(F)F` [trans-1,3,3,3-tetrafluoropropene] + CC(C)C yielded a mass density (325.1 K, 523.6 kPa, w1 = 0.85) of 21.624 ± 0.97 kg/m3, a mass density (325.1 K, 621.5 kPa, w1 = 0.75) of 24.3306 ± 0.97 kg/m3 and a mass density (325.1 K, 668.2 kPa, w1 = 0.85) of 28.6964 ± 1.1 kg/m3. For the same molecule, the mass density (325.1 K, 786.7 kPa, w1 = 0.75) was 32.2887 ± 1 kg/m3, the mass density (325.1 K, 844.6 kPa, w1 = 0.85) was 38.0818 ± 1.1 kg/m3 and the mass density (325.11 K, 166.4 kPa, w1 = 0.7) was 5.6568 ± 0.71 kg/m3. For the same molecule, the mass density (325.11 K, 167.1 kPa, w1 = 0.75) was 5.9115 ± 0.74 kg/m3, the mass density (325.11 K, 218.6 kPa, w1 = 0.7) was 7.5069 ± 0.72 kg/m3 and the mass density (325.11 K, 237.8 kPa, w1 = 0.85) was 9.2525 ± 0.82 kg/m3. For the same molecule, the mass density (325.11 K, 286.7 kPa, w1 = 0.7) was 9.9621 ± 0.75 kg/m3, the mass density (325.11 K, 373.4 kPa, w1 = 0.7) was 13.2204 ± 0.78 kg/m3 and the mass density (325.11 K, 483.2 kPa, w1 = 0.7) was 17.5443 ± 0.85 kg/m3. It also gave a mass density (325.11 K, 617.3 kPa, w1 = 0.7) of 23.2823 ± 0.9 kg/m3, a mass density (325.13 K, 167.9 kPa, w1 = 0.65) of 5.518 ± 0.69 kg/m3 and a mass density (325.13 K, 220.6 kPa, w1 = 0.65) of 7.3227 ± 0.7 kg/m3. The mass density (325.13 K, 289.1 kPa, w1 = 0.65) was 9.7176 ± 0.72 kg/m3, the mass density (325.13 K, 377.5 kPa, w1 = 0.65) was 12.8959 ± 0.77 kg/m3 and the mass density (325.13 K, 484.7 kPa, w1 = 0.65) was 17.1136 ± 0.83 kg/m3. The mass density (325.13 K, 619.9 kPa, w1 = 0.65) was 22.7108 ± 0.86 kg/m3, the mass density (325.17 K, 238.4 kPa, w1 = 0.8) was 8.8968 ± 0.79 kg/m3 and the mass density (325.17 K, 312.1 kPa, w1 = 0.8) was 11.8066 ± 0.81 kg/m3. It also gave a mass density (325.17 K, 407 kPa, w1 = 0.8) of 15.6681 ± 0.85 kg/m3, a mass density (325.17 K, 526.5 kPa, w1 = 0.8) of 20.7926 ± 0.94 kg/m3 and a mass density (325.17 K, 669 kPa, w1 = 0.8) of 27.593 ± 1 kg/m3. It also gave a mass density (325.17 K, 846.3 kPa, w1 = 0.8) of 36.6175 ± 1.1 kg/m3, a mass density (325.18 K, 181.5 kPa, w1 = 0.8) of 6.704 ± 0.77 kg/m3 and a mass density (325.18 K, 192.3 kPa, w1 = 0.9) of 7.7424 ± 0.85 kg/m3. The mass density (325.18 K, 252.4 kPa, w1 = 0.9) was 10.2747 ± 0.86 kg/m3, the mass density (325.18 K, 330.4 kPa, w1 = 0.9) was 13.6351 ± 0.89 kg/m3 and the mass density (325.18 K, 430.4 kPa, w1 = 0.9) was 18.0945 ± 0.96 kg/m3. It also gave a mass density (325.18 K, 549.6 kPa, w1 = 0.9) of 24.0125 ± 1 kg/m3, a mass density (325.18 K, 703.2 kPa, w1 = 0.9) of 31.8661 ± 1.1 kg/m3 and a mass density (330.12 K, 156.9 kPa, w1 = 0.75) of 5.446 ± 0.73 kg/m3. For the same molecule, the mass density (330.12 K, 205.5 kPa, w1 = 0.75) was 7.2271 ± 0.73 kg/m3, the mass density (330.12 K, 271 kPa, w1 = 0.75) was 9.5908 ± 0.75 kg/m3 and the mass density (330.12 K, 354.5 kPa, w1 = 0.75) was 12.7274 ± 0.8 kg/m3. It also gave a mass density (330.12 K, 457.3 kPa, w1 = 0.75) of 16.8904 ± 0.85 kg/m3, a mass density (330.12 K, 588.2 kPa, w1 = 0.75) of 22.4145 ± 0.91 kg/m3 and a mass density (330.12 K, 750 kPa, w1 = 0.75) of 29.7454 ± 1 kg/m3. The mass density (330.12 K, 945.5 kPa, w1 = 0.75) was 39.4741 ± 1.1 kg/m3, the mass density (330.12 K, 981.5 kPa, w1 = 0.85) was 44.7652 ± 1.2 kg/m3 and the mass density (330.13 K, 163.7 kPa, w1 = 0.85) was 6.1759 ± 0.79 kg/m3. It also gave a mass density (330.13 K, 215.1 kPa, w1 = 0.85) of 8.1958 ± 0.79 kg/m3, a mass density (330.13 K, 282.7 kPa, w1 = 0.85) of 10.876 ± 0.81 kg/m3 and a mass density (330.13 K, 369.7 kPa, w1 = 0.85) of 14.4335 ± 0.87 kg/m3. The mass density (330.13 K, 612.7 kPa, w1 = 0.85) was 25.4187 ± 1 kg/m3, the mass density (330.13 K, 779.3 kPa, w1 = 0.85) was 33.7323 ± 1.1 kg/m3 and the mass density (330.14 K, 476.1 kPa, w1 = 0.85) was 19.1537 ± 0.93 kg/m3. For the same molecule, the mass density (330.2 K, 440.7 kPa, w1 = 0.7) was 15.4891 ± 0.82 kg/m3, the mass density (330.2 K, 559.7 kPa, w1 = 0.7) was 20.5552 ± 0.88 kg/m3 and the mass density (330.2 K, 717.8 kPa, w1 = 0.7) was 27.2782 ± 0.9 kg/m3. For the same molecule, the mass density (330.21 K, 338.1 kPa, w1 = 0.7) was 11.6715 ± 0.74 kg/m3, the mass density (330.21 K, 929.7 kPa, w1 = 0.9) was 43.8273 ± 1.2 kg/m3 and the mass density (330.22 K, 153.7 kPa, w1 = 0.9) was 6.0465 ± 0.82 kg/m3. The mass density (330.22 K, 202.2 kPa, w1 = 0.9) was 8.024 ± 0.83 kg/m3, the mass density (330.22 K, 258.3 kPa, w1 = 0.7) was 8.7948 ± 0.72 kg/m3 and the mass density (330.22 K, 265.5 kPa, w1 = 0.9) was 10.6483 ± 0.85 kg/m3. For the same molecule, the mass density (330.22 K, 347.5 kPa, w1 = 0.9) was 14.131 ± 0.88 kg/m3, the mass density (330.22 K, 452.8 kPa, w1 = 0.9) was 18.7526 ± 0.96 kg/m3 and the mass density (330.22 K, 576.5 kPa, w1 = 0.9) was 24.8861 ± 1 kg/m3. The mass density (330.22 K, 735.5 kPa, w1 = 0.9) was 33.0255 ± 1.1 kg/m3, the mass density (330.23 K, 145.4 kPa, w1 = 0.65) was 4.6896 ± 0.66 kg/m3 and the mass density (330.23 K, 149.5 kPa, w1 = 0.7) was 4.9937 ± 0.69 kg/m3. For the same molecule, the mass density (330.23 K, 192.1 kPa, w1 = 0.65) was 6.2233 ± 0.67 kg/m3, the mass density (330.23 K, 252.5 kPa, w1 = 0.65) was 8.2587 ± 0.69 kg/m3 and the mass density (330.23 K, 272.1 kPa, w1 = 0.8) was 10.0277 ± 0.79 kg/m3. The mass density (330.23 K, 354.3 kPa, w1 = 0.8) was 13.3074 ± 0.81 kg/m3, the mass density (330.23 K, 463.4 kPa, w1 = 0.8) was 17.6597 ± 0.88 kg/m3 and the mass density (330.23 K, 754.4 kPa, w1 = 0.8) was 31.1003 ± 1 kg/m3. For the same molecule, the mass density (330.23 K, 951.7 kPa, w1 = 0.8) was 41.2719 ± 1.1 kg/m3, the mass density (330.24 K, 157.7 kPa, w1 = 0.8) was 5.6939 ± 0.75 kg/m3 and the mass density (330.24 K, 196.7 kPa, w1 = 0.7) was 6.6269 ± 0.7 kg/m3. The mass density (330.24 K, 207.3 kPa, w1 = 0.8) was 7.5562 ± 0.76 kg/m3, the mass density (330.24 K, 330.6 kPa, w1 = 0.65) was 10.9596 ± 0.71 kg/m3 and the mass density (330.24 K, 431.5 kPa, w1 = 0.65) was 14.544 ± 0.78 kg/m3. It also gave a mass density (330.24 K, 590.5 kPa, w1 = 0.8) of 23.435 ± 0.95 kg/m3, a mass density (330.24 K, 702.3 kPa, w1 = 0.65) of 25.6134 ± 0.86 kg/m3 and a mass density (330.25 K, 548.5 kPa, w1 = 0.65) of 19.3004 ± 0.84 kg/m3.
